From ChEMBL document CHEMBL1147443, “Regioselective oxidation of 2-amino-3-aroyl-4,5-dialkylthiophenes by DMSO” (Bioorg Med Chem Lett, 2004) come the findings set out here.

Data set [1] in a line: Half life by its biological oxidation in presence of human liver microsomes. Type of data set: ADME, Microsome.
Data set [2] is described as follows: Half life by its biological oxidation in presence of horse radish […]. Type of data set: ADME. The conditions noted are these: horseradish, horseradish peroxidase.

For `Nc1sc2c(c1C(=O)c1ccc(-c3ccccc3)cc1)CCCC2`, the half-life in data set [1] and in data set [2] was below 1 min throughout.
Consider `Nc1sc2c(c1C(=O)c1ccc3ccccc3c1)CCCC2`, for which the half-life in data set [1] was below 1 min; in data set [2], 1.33 min.
The like results for `Cc1sc(N)c(C(=O)c2cccc(C(F)(F)F)c2)c1C` were, in that order, below 1 min and below 1 min.
